Key:
[1] = system: orthotopic glioblastoma; experiment: Orthotopic glioblastoma mouse model; format: in vivo; settings: for proliferation rate: 100 μM or 300 μM of TP5; for tumor volume: 100 μM or 300 μM of TP5, FIG. 5
Procedure: The effect of TP5 administration in an orthotopic glioblastoma mouse model additionally was determined. 100 μM or 300 μM of TP5 was administered to the mice and tumor volume and proliferation rate were investigated.

[2] = system: glioblastoma cell line U251; experiment: Viability of glioblastoma cell line U251; format: cell-based; settings: FIG. 1
Procedure: (§1) The viability of glioblastoma cell line U251 following the administration of TP5 (SEQ ID NO: 1) was determined. TP5 scrambled (SEQ ID NO: 2) was used as a control.

[3] = system: colorectal carcinoma cell line HT29; experiment: Viability of colorectal carcinoma cell line HT29; format: cell-based; settings: FIG. 6
Procedure: (§2) The viability of colorectal carcinoma cell line HT29 following the administration of TP5 (SEQ ID NO: 1) was determined. TP5 scrambled (SEQ ID NO: 2) was used as a control.

[4] = system: colorectal carcinoma cell line HT29; experiment: DNA damage measured by expression of pH2Ax in HT29; format: cell-based; settings: FIG. 8
[5] = system: colorectal cancer colonies; experiment: Number and viability of colorectal cancer colonies; format: cell-based; settings: different amounts of TP5; FIG. 7
Procedure: as §2

[6] = system: subcutaneous colorectal cancer; experiment: Subcutaneous colorectal cancer mouse model; format: in vivo; settings: FIG. 9
Procedure: The effect of TP5 administration alone or in combination with chemotherapy (Sn38; 7-ethyl-10-hydroxycamptothecin) in a subcutaneous colorectal cancer mouse model additionally was determined. TP5, Sn38, or TP5+Sn38 was administered to the mice and tumor volume and proliferation rate were investigated.

[7] = system: glioblastoma cell line U251; experiment: Early and late apoptosis in glioblastoma cell line U251; format: cell-based; settings: FIG. 3
Procedure: The extent of early and late apoptosis in glioblastoma cell line U251 also was determined.

[8] = system: glioblastoma cell line U251; experiment: DNA damage measured by expression of pH2Ax in U251; format: cell-based; settings: FIG. 4
Excerpt: Although not wishing to be bound by any particular theory, TP5 is believed to increase DNA damage in a dose-dependent manner and impair DNA repair by reducing G2 phase and decreasing the phosphorylation of ATM.

[9] = system: glioblastoma colonies; experiment: Number and viability of glioblastoma colonies; format: cell-based; settings: different amounts of TP5; FIG. 2
Procedure: as §1

Row | Substance | proliferation rate [1] | tumor volume [1] | viability of glioblastoma cell line [2] | viability of colorectal carcinoma cell line [3] | DNA damage as measured by expression of pH2Ax [4] | number and viability of colorectal cancer colonies [5] | tumor volume [6] | early and late apoptosis [7] | DNA damage as measured by expression of pH2Ax [8] | number and viability of glioblastoma colonies [9]
1 | TP5 scrambled: scrambled TP5 peptide (SEQ ID NO: 2) used as a control (FWDRCLSGKMSSKGGGINAYARAARRAARR) [reference compound] | but not TP5 scrambled decreases the tumor volume and proliferation rate | but not TP5 scrambled decreases the tumor volume | but not TP5 scrambled decreased the viability of glioblastoma cell line |  |  |  |  |  |  | 
2 | TP5: P5, a small peptide that selectively inhibits aberrant and hyperactive CDK5/p25, modified to facilitate passage through blood brain barrier; SEQ ID NO: 1 (KEAFWDRCLSVINLMSSKMLQINAYARAARRAARR) | decreases the tumor volume and proliferation rate | decreases the tumor volume | decreased the viability of glioblastoma cell line in a dose-dependent manner | decreased the viability of glioblastoma cell line in a dose-dependent manner | increases DNA damage in colorectal carcinoma cell line HT29 in a dose-dependent manner | decreased the number and viability of colorectal cancer colonies in a dose-dependent manner | decreased the tumor volume of the mice | increases the early and late apoptosis of glioblastoma cells | increases DNA damage in glioblastoma cell line U251 in a dose-dependent manner | decreased the number and viability of glioblastoma colonies in a dose-dependent manner
